Assay results reported in patent US12037324B2, “Biarylmethyl heterocycles” (Université de Montréal, priority 2016, dated 2024).
Like-named read-outs stand apart in the source and are kept apart here.

How the values were obtained:
AGTR1 [1] = molecular target: T1, AGTR1 (Homo sapiens, UniProt P30556); assay: DiscoveRx β-arrestin2 recruitment assay (enzyme complementation, Pathunter CHO-K1 AGTR1 β-arrestin cell line); format: cell-based; conditions: DiscoveRx β-arrestin2 recruitment; for DiscoveRx β-arrestin2 Ymax (%): maximal response
T1 construct: host or cells: Pathunter CHO-K1 AGTR1 β-arrestin cell line (CHO-K1)
T1 sequence (P30556 1-359): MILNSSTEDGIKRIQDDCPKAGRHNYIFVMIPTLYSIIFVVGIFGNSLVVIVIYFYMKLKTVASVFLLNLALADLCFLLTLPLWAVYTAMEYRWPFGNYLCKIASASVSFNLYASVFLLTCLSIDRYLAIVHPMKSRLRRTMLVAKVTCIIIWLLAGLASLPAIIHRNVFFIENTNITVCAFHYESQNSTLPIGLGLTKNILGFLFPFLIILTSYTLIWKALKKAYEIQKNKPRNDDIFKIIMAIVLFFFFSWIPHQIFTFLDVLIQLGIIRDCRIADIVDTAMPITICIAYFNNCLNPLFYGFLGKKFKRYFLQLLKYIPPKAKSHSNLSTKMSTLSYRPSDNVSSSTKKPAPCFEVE
Summary of the method: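 Chemiluminescent enzyme-complementation read-out of β-arrestin2 recruitment to AGTR1 in engineered CHO-K1 cells after 90 min compound exposure at 37° C. Values are 4-parameter logistic EC50s in agonist mode, IC50s in antagonist mode, with efficacy relative to the maximal All response.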

AGTR1 [2] = molecular target: T1, AGTR1; assay: DiscoveRx IP1 accumulation assay (HTRF), agonist mode, Pathunter CHO-K1 AGTR1 β-arrestin cell line; format: cell-based; conditions: for EC50: read-out: IP-1 EC50
Summary of the method: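 Agonist mode in CHO-K1 AGTR1 β-arrestin cells plated 14-16 h before; compounds at varying concentrations for 90 min at 37° C, IP1 accumulation read by HTRF (D2-conjugate and anti-IP1 cryptate, 20 min room temperature). EC50 from 4-parameter logistic fit; activity given as percentage of maximal AII effect.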

hAT1R [3] = molecular target: T2, hAT1R (Homo sapiens, UniProt P30556); assay: cell-based
T2 sequence (P30556 1-359): T1 sequence (P30556 1-359)

hAT1R [4] = molecular target: T2, hAT1R; assay: cell-based; conditions: agonist mode; for EC50: read-out: BRET P63 EC50
[5] = section of the 42nd table ending at r951, example numbering restarts after the DiscoveRx section, read-out: β-arrestin2 EC50
[6] = Low AT1R Expression, read-out: BRET β-Arrestin2 Low AT1R Expression EC50

| SMILES | EC50 (AGTR1 [1]) | DiscoveRx β-arrestin2 Ymax (%) (AGTR1 [1]) | IP-1 Ymax (%) (AGTR1 [2]) | EC50 (AGTR1 [2]) | EC50 (hAT1R [3]; [5]) | EC50 (hAT1R [4]) | BRET P63 Ymax (hAT1R [4]) | BRET β-Arrestin2 Low AT1R Expression Ymax (%) (hAT1R [3]; Low AT1R Expression) | EC50 (hAT1R [3]; [6]) |
| --- | --- | --- | --- | --- | --- | --- | --- | --- | --- |
| CCCC1=NC2(CCOC2)C(=O)N1Cc1ccc(-c2cc(-c3cccc(C)c3)ccc2-c2nnn[nH]2)cc1 (single isomer, unassigned) [Example 163] | 0.0692 µM | 34.6% | 7.8% | 0.181 µM | 0.0918 µM | > 10 µM | – | – | – |
| CCc1nc2c(C)cc(C)nc2n1Cc1ccc(-c2cc(-n3cc(C)cn3)ccc2-c2nnn[nH]2)cc1 [Example 217, 2-ethyl-5,7-dimethyl-3-((5′-(4-methyl-1H-pyrazol-1-yl)-2′-(1H-tetrazol-5-yl)-[1,1′-biphenyl]-4-yl)methyl)-3H-imidazo[4,5-b]pyridine] | 0.0046 µM | 70.3% | 21.8% | 0.0225 µM | 0.003 µM | 0.0027 µM | 32.1% | – | – |
| CCc1nc2c(C)cc(C)nc2n1Cc1ccc(-c2cc(-c3cn(CCF)nn3)ccc2-c2nnn[nH]2)cc1 [Example 239] | 0.0054 µM | 59.1% | 34.2% | 0.0307 µM | 0.009 µM | 0.0167 µM | 44.3% | – | – |
| CC1=NC2(CCCC2)C(=O)N1Cc1ccc(-c2cc(-c3cc(C)ccn3)ccc2-c2nn[nH]n2)cc1 [Example 111, 2-methyl-3-((5′-(4-methylpyridin-2-yl)-2′-(2H-tetrazol-5-yl)-[1,1′-biphenyl]-4-yl)methyl)-1,3-diazaspiro[4.4]non-1-en-4-one] | 0.0064 µM | 63.3% | 15.7% | 0.0126 µM | – | 0.0223 µM | 24.1% | 80.7% | 0.0147 µM |
| CCCC1=NC2(CCOC2)C(=O)N1Cc1ccc(-c2cc(-c3ccccc3O)ccc2-c2nnn[nH]2)cc1 (single isomer, unassigned) [Example 164] | 0.076 µM | 58.7% | 17.3% | 0.231 µM | 0.16 µM | 0.106 µM | 15.6% | – | – |
| CCc1nc2c(C)cc(C)nc2n1Cc1ccc(-c2cc(-c3cn(C)nn3)ccc2-c2nnn[nH]2)cc1 [Example 243, 2-Ethyl-5,7-dimethyl-3-((5′-(1-methyl-1H-1,2,3-triazol-4-yl)-2′-(1H-tetrazol-5-yl)-[1,1′-biphenyl]-4-yl)methyl)-3H-imidazo[4,5-b]pyridine] | 0.0224 µM | 37.7% | 14.7% | 0.052 µM | 0.0715 µM | 0.0421 µM | 15.2% | – | – |
| CCCCC1=NC2(CCOC2)C(=O)N1Cc1ccc(-c2cc(-c3cccc(C)c3)ccc2-c2nnn[nH]2)cc1 (single isomer, unassigned) [Example 152] | 0.0116 µM | 28.6% | 7.0% | 0.0307 µM | 0.0218 µM | > 100 µM | – | – | – |
| CCc1nc2c(C)cc(C)nc2n1Cc1ccc(-c2cc(N3CCCCC3)ccc2-c2nn[nH]n2)cc1 [Example 91] | 0.0606 µM | 22.6% | – | > 100 µM | – | > 100 µM | – | – | > 10 µM |
| CCC1=NC2(CCOC2)C(=O)N1Cc1ccc(-c2cc(-c3ccccc3)ccc2-c2nn[nH]n2)cc1 (single isomer, unassigned) [Example 165] | 0.0568 µM | 45.7% | 17.7% | 0.192 µM | 0.281 µM | 0.262 µM | 14.1% | – | – |
| CCC1=NC2(CCOC2)C(=O)N1Cc1ccc(-c2cc(-c3ccccc3O)ccc2-c2nnn[nH]2)cc1 (single isomer, unassigned) [Example 167] | 0.036 µM | 78.8% | 32.4% | 0.165 µM | 0.0583 µM | 0.0915 µM | 32.0% | – | – |
| CCc1nc2c(C)cc(C)nc2n1Cc1ncc(-c2cc(-c3ccccc3O)ccc2-c2nnn[nH]2)cn1 [Example 189] | 0.0092 µM | 53.0% | 12.7% | 0.0184 µM | 0.0492 µM | 0.0321 µM | 17.5% | – | – |
| CCc1nc2c(C)cc(C)nc2n1Cc1ccc(-c2cc(-c3cc(C)c(F)cn3)ccc2-c2nn[nH]n2)cc1 [Example 66] | 0.0058 µM | 25.8% | 6.9% | 0.0085 µM | – | > 10 µM | – | 39.4% | 0.0166 µM |
| CCCC1=NC2(CCOC2)C(=O)N1Cc1ccc(-c2cc(-c3ccccc3F)ccc2-c2nnn[nH]2)cc1 (single isomer, unassigned) [Example 161] | 0.0885 µM | 40.7% | 14.2% | 0.203 µM | 0.0463 µM | 0.0496 µM | 10.9% | – | – |
| CCc1nc2c(C)cc(C)nc2n1Cc1cnc(-c2cc(-c3ccccc3)ccc2-c2nnn[nH]2)cn1 [Example 187, 3-((5-(4-(1H-tetrazol-5-yl)-[1,1′-biphenyl]-3-yl)pyrazin-2-yl)methyl)-2-ethyl-5,7-dimethyl-3H-imidazo[4,5-b]pyridine] | 0.0444 µM | 34.0% | 16.1% | 0.104 µM | 0.181 µM | 0.168 µM | 8.4% | – | – |
| CCc1nc2c(C)cc(C)nc2n1Cc1ccc(-c2cc(-c3ccc(F)cn3)ccc2-c2nn[nH]n2)cc1 [Example 65] | 0.0273 µM | 31.0% | 12.2% | 0.0627 µM | – | 0.0172 µM | 13.1% | 54.5% | 0.0236 µM |
| CCCCC1=NC2(CCOC2)C(=O)N1Cc1ccc(-c2cc(-c3cccc(C)c3)ccc2-c2nnn[nH]2)cc1 (single isomer, unassigned) [Example 153] | 0.0287 µM | 19.6% | 6.0% | 0.229 µM | 0.0541 µM | > 100 µM | – | – | – |
| CCc1nc2c(C)cc(C)nc2n1Cc1ccc(-c2cc(-n3ncc4ccccc43)ccc2-c2nnn[nH]2)cc1 [Example 215, 3-((5′-(1H-Indazol-1-yl)-2′-(1H-tetrazol-5-yl)-[1,1′-biphenyl]-4-yl)methyl)-2-ethyl-5,7-dimethyl-3H-imidazo[4,5-b]pyridine] | 0.0051 µM | 46.1% | 17.3% | 0.0176 µM | 0.0041 µM | 0.004 µM | 22.7% | – | – |
| CCc1nc2c(C)cc(C)nc2n1Cc1ccc(-c2cc(-c3cccc(C)c3)ccc2-c2nnn[nH]2)nn1 [Example 191, 2-ethyl-5,7-dimethyl-3-((6-(3′-methyl-4-(1H-tetrazol-5-yl)biphenyl-3-yl)pyridazin-3-yl)methyl)-3H-imidazo[4,5-b]pyridine] | 0.0207 µM | 53.0% | 29.9% | 0.118 µM | 0.076 µM | 0.101 µM | 24.2% | – | – |
| CCCCC1=NC2(CCOCC2)C(=O)N1Cc1ccc(-c2cc(-c3ccccc3O)ccc2-c2nnn[nH]2)cc1 [Example 157] | 0.0303 µM | 44.7% | 11.4% | 0.0601 µM | 0.0611 µM | 0.0376 µM | 16.5% | – | – |
| CCc1nc2c(C)cc(C)nc2n1Cc1ccc(-c2cc(-n3cc4ccccc4n3)ccc2-c2nnn[nH]2)cc1 [Example 216, 3-((5′-(2H-Indazol-2-yl)-2′-(1H-tetrazol-5-yl)-[1,1′-biphenyl]-4-yl)methyl)-2-ethyl-5,7-dimethyl-3H-imidazo[4,5-b]pyridine] | 0.0096 µM | 33.4% | 10.6% | 0.0291 µM | 0.0066 µM | 0.0018 µM | 10.1% | – | – |
| CC1=NC2(CCOCC2)C(=O)N1Cc1ccc(-c2cc(-c3ccccc3)ccc2-c2nn[nH]n2)cc1 [Example 172, 3-((6′-(2H-tetrazol-5-yl)-[1,1′:3′,1″-terphenyl]-4-yl)methyl)-2-methyl-8-oxa-1,3-diazaspiro[4.5]dec-1-en-4-one] | 0.196 µM | 27.1% | 9.4% | 0.782 µM | > 10 µM | > 10 µM | – | – | – |
